Measured values taken from patent publication US20080234317A1, “METHODS FOR THE IMPROVEMENT OF MEMORY AND NEUROLOGICAL FUNCTION COMPRISING THE ADMINISTRATION OF COMPOSITIONS THAT ACT AS INHIBITORS OF THE SODIUM PROTON (NA+ /H+ ) EXCHANGER, SUBTYPE 5 (NHE-5)” (SANOFI-AVENTIS, priority 2005, published 2008).
Counter-ions that a name gives are not always drawn.

Columns and labels:
NHE-5 = molecular target: T1, NHE-5 (Homo sapiens, UniProt Q14940); test: recovery of intracellular pH in LAP1 cells stably expressing NHE subtypes after acidification (BCECF, FLIPR); format: cell-based; settings: LAP1 cells expressing NHE-5; pH recovery registered for two minutes
T1 construct: expressed in transfected cells
T1 sequence (Q14940 1-896): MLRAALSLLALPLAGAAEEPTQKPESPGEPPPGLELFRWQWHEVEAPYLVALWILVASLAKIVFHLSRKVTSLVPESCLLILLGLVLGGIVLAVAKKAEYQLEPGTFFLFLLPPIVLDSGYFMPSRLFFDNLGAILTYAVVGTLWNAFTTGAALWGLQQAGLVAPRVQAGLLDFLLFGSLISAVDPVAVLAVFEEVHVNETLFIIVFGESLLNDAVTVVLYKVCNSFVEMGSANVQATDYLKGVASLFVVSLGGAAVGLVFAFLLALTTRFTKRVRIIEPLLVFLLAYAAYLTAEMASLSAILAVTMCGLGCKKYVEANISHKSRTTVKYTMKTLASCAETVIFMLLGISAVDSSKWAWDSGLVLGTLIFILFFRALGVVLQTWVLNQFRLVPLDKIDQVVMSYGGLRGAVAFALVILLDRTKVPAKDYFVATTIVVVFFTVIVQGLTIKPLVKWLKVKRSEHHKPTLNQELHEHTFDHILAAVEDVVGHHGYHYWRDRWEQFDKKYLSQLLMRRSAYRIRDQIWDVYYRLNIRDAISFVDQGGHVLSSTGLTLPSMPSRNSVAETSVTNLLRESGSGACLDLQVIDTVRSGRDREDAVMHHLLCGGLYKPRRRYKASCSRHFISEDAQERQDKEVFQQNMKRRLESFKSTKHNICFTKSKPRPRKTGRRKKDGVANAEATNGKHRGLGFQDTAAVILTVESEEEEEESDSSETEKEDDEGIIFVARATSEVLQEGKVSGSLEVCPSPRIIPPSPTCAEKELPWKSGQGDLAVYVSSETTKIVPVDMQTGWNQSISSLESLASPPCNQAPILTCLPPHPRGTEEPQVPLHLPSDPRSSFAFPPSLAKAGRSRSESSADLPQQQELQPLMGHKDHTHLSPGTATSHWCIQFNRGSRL
Procedure: In order to obtain pharmacological data for NHE-5 inhibition, the recovery in the intracellular pH (pHi) of LAP1 cells, which stably express the different subtypes of the sodium-proton exchanger (NHE), was determined after an acidification. This recovery occurs even under bicarbonate-free conditions in the case of functioning NHE. To this end, the pHi was determined with the pH-sensitive fluorescent dye BCECF (Molecular Probes, Eugene, Oreg., USA; the precursor BCECF-AM is used). […] The pH recovery was started by the addition of 90 μl of Na^+-containing buffer (133.8 mM NaCl, 4.7 mM KCl, 1.25 mM CaCl2, 1.25 mM MgCl2, 0.97 mM Na2HPO4, 0.23 mM NaH2PO4, 10 mM Hepes, 5 mM glucose; a pH of 7.4 is established with 1 M NaOH) in the analytical instrument (FLIPR, “Fluorometric Imaging Plate Reader”, Molecular Devices, Sunnyvale, Calif., USA). The BCECF fluorescence was determined at an excitation wavelength of 498 nm and the FLIPR emission filter 1 (band gap from 510 to 570 nm). The subsequent changes in fluorescence were registered for two minutes at NHE-5 as a measure of the pH recovery. […] From the percentages of the pH recovery, the IC50 value of the particular substance for the individual NHE subtypes was calculated by means of the program XLFit (idbs, Surrey, UK).

[1] = tested on: LTP in the CA 1 region of the hippocampus section; test: early LTP after weak tetanus in hippocampus sections, CA 1 region (fEPSP slope); format: cell-based, Wistar rats; settings: 10 μM

Row | SMILES | melting point | IC50 (NHE-5) | potentiation of the EPSP, % of the baseline ([1]; flushed 20 min before stimulation, washed out 20 min after, 80 min after the stimulus, control 113%) | intrinsic effect on synaptic transmission ([1]; baseline recording before tetanus, rat hippocampus sections) | maintenance of the weak LTP ([1]; weak tetanus, rat hippocampus sections)
1 | CN1Cc2c(Cl)cc(Cl)cc2C(c2ccc(S(=O)(=O)N=C(N)N)cc2)C1 (centres unmarked) (as salt: hydrochloride) [Example 1, N-Diaminomethylene-4-(6,8-dichloro-2-methyl-1,2,3,4-tetrahydroisoquinolin-4-yl)benzenesulfonamide, dihydrochloride] | 140 °C (dec.) |  |  |  | 
2 | CN1Cc2c(Cl)cc(Cl)cc2C(c2ccc(S(=O)(=O)N=C(N)N)cc2)C1 (centres unmarked) [Example 1, N-Diaminomethylene-4-(6,8-dichloro-2-methyl-1,2,3,4-tetrahydroisoquinolin-4-yl)benzenesulfonamide, dihydrochloride] |  | 370 nM | under 137 % of the baseline | no intrinsic effect on synaptic transmission | improve maintenance of the weak LTP
